Data from patent US12473304B2, “Heterocyclic PAD4 inhibitors” (BRISTOL-MYERS SQUIBB COMPANY, priority 2020, dated 2025).

Target: human PAD4 (hPAD4) (Homo sapiens (Human), UniProt Q9UM07)
Assay: RFMS Human PAD4 Functional Assay 1
Assay type: biochemical
Conditions: RFMS assay 1; 5 nM hPAD4, 250 μM BAEE substrate, 50 μM calcium, 37° C.
Method in brief: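 Recombinant hPAD4 (5 nM) was preincubated with compound (top 50 μM, 0.5% DMSO) for 30 min at 37 °C, then reacted with 250 μM BAEE for 90 min at 37 °C in pH 7.5 HEPES buffer with 50 μM calcium and 5 μM TPEN. Product was derivatized with phenyl glyoxal and quantified by RapidFire MS.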

Chain of human PAD4 (hPAD4) (Q9UM07 whole entry): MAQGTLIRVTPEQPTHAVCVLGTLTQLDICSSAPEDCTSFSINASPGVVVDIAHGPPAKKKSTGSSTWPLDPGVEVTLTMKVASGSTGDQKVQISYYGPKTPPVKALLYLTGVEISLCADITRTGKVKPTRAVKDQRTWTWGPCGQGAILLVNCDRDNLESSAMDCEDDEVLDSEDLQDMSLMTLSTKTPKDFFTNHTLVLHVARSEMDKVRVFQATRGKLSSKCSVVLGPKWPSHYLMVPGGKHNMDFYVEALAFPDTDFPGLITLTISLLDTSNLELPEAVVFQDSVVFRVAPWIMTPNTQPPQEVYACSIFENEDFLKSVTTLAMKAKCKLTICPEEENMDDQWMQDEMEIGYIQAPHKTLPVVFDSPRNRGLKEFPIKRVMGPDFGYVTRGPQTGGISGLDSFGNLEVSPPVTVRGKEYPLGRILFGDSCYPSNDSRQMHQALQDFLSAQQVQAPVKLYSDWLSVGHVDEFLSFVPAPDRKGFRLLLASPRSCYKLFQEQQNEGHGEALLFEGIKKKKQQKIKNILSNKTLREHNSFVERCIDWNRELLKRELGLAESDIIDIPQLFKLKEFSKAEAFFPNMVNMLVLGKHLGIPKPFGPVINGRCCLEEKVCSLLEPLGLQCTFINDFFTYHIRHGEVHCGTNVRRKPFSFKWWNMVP

Q: With `Cc1c(-c2cc3ccc(N4CCOCC4)nc3n2CC2CC2)nn2cc(C(=O)N3CC4CCC3[C@@H]4N)cc(F)c12` (stereo partly drawn) [Example 266, (7R)-2-{2-[1-(Cyclopropylmethyl)-6-(morpholin-4-yl)-1H-pyrrolo[2,3-b]pyridin-2-yl]-4-fluoro-3-methylpyrazolo[1,5-a]pyridine-6-carbonyl}-2-azabicyclo[2.2.1]heptan-7-amine] as the molecule, how does the IC50 read?
A: The IC50 was 0.28 µM.

Q: For `Cc1c(-c2cc3ccc(N4CCOCC4=O)nc3n2CC2CC2)nn2cc(C(=O)N3CC4CCC3[C@@H]4N)cc(F)c12` (stereo partly drawn) [Example 267, 4-(2-{6-[(7R)-7-Amino-2-azabicyclo[2.2.1]heptane-2-carbonyl]-4-fluoro-3-methylpyrazolo[1,5-a]pyridin-2-yl}-1-(cyclopropylmethyl)-1H-pyrrolo[2,3-b]pyridin-6-yl)morpholin-3-one], which IC50 is on record?
A: Its IC50 is 0.05 µM.

Q: Which IC50 does the source give for `Cc1c(-c2cc3ccc(N4CCC(S(C)(=O)=O)CC4)nc3n2CC2CC2)nn2cc(C(=O)N3CC4CCC3[C@@H]4N)cc(F)c12` (stereo partly drawn) [Example 268, (7R)-2-{2-[1-(Cyclopropylmethyl)-6-(4-methanesulfonylpiperidin-1-yl)-1H-pyrrolo[2,3-b]pyridin-2-yl]-4-fluoro-3-methylpyrazolo[1,5-a]pyridine-6-carbonyl}-2-azabicyclo[2.2.1]heptan-7-amine] here?
A: The IC50 was 0.04 µM.

Q: With `Cc1c(-c2cc3ccc(N4CCC5(CC4)CN(C)C(=O)O5)nc3n2CC2CC2)nn2cc(C(=O)N3CCC[C@@H](N)C3)cc(F)c12` [Example 269, 8-(2-{6-[(3R)-3-Aminopiperidine-1-carbonyl]-4-fluoro-3-methylpyrazolo[1,5-a]pyridin-2-yl}-1-(cyclopropylmethyl)-1H-pyrrolo[2,3-b]pyridin-6-yl)-3-methyl-1-oxa-3,8-diazaspiro[4.5]decan-2-one] as the molecule, how does the IC50 read?
A: Its IC50 is 0.54 µM.

Q: How did the IC50 turn out when `Cc1c(-c2cc3ccc(N4CCC(S(C)(=O)=O)CC4)nc3n2CC2CC2)nn2cc(C(=O)N3CCC[C@@H](N)C3)cc(F)c12` [Example 270, (3R)-1-{2-[1-(Cyclopropylmethyl)-6-(4-methanesulfonylpiperidin-1-yl)-1H-pyrrolo[2,3-b]pyridin-2-yl]-4-fluoro-3-methylpyrazolo[1,5-a]pyridine-6-carbonyl}piperidin-3-amine] was run?
A: Its IC50 is 2.11 µM.

Q: For `CC(=O)N(C)C1CCN(c2ccc3cc(-c4nn5cc(C(=O)N6CCC[C@@H](N)C6)cc(F)c5c4C)n(CC4CC4)c3n2)CC1` [Example 271, N-[1-(2-{6-[(3R)-3-Aminopiperidine-1-carbonyl]-4-fluoro-3-methylpyrazolo[1,5-a]pyridin-2-yl}-1-(cyclopropylmethyl)-1H-pyrrolo[2,3-b]pyridin-6-yl)piperidin-4-yl]-N-methylacetamide], which IC50 is on record?
A: Its IC50 is 2.07 µM.

Q: With `COC(=O)N(C)C1CCN(c2ccc3cc(-c4nn5cc(C(=O)N6CCC[C@@H](N)C6)cc(F)c5c4C)n(CC4CC4)c3n2)CC1` [Example 272, Methyl N-[1-(2-{6-[(3R)-3-aminopiperidine-1-carbonyl]-4-fluoro-3-methylpyrazolo[1,5-a]pyridin-2-yl}-1-(cyclopropylmethyl)-1H-pyrrolo[2,3-b]pyridin-6-yl)piperidin-4-yl]-N-methylcarbamate] as the molecule, how does the IC50 read?
A: Its IC50 is 3.81 µM.

Q: `Cc1c(-c2cc3ccc(N4CCC(N5CCCC5=O)CC4)nc3n2CC2CC2)nn2cc(C(=O)N3CCC[C@@H](N)C3)cc(F)c12` [Example 273, 1-[1-(2-{6-[(3R)-3-Aminopiperidine-1-carbonyl]-4-fluoro-3-methylpyrazolo[1,5-a]pyridin-2-yl}-1-(cyclopropylmethyl)-1H-pyrrolo[2,3-b]pyridin-6-yl)piperidin-4-yl]pyrrolidin-2-one] was tested. Which IC50 did it give?
A: Its IC50 is 2.42 µM.

Q: For `Cc1c(-c2cc3ccc(OC[C@@H]4CCC(=O)N4)nc3n2CC2CC2)nn2cc(C(=O)N3CC4CCC3[C@@H]4N)cc(F)c12` (stereo partly drawn) [Example 274, (5S)-5-{[(2-{6-[(7R)-7-Amino-2-azabicyclo[2.2.1]heptane-2-carbonyl]-4-fluoro-3-methylpyrazolo[1,5-a]pyridin-2-yl}-1-(cyclopropylmethyl)-1H-pyrrolo[2,3-b]pyridin-6-yl)oxy]methyl}pyrrolidin-2-one], which IC50 is on record?
A: Its IC50 is 0.27 µM.

Q: How did the IC50 turn out when `COC1CCN(c2ccc3cc(-c4nn5cc(C(=O)N6CCC[C@@H](N)C6)cc(Cl)c5c4C)n(CC4CC4)c3n2)CC1` [Example 276, (3R)-1-{4-Chloro-2-[1-(cyclopropylmethyl)-6-(4-methoxypiperidin-1-yl)-1H-pyrrolo[2,3-b]pyridin-2-yl]-3-methylpyrazolo[1,5-a]pyridine-6-carbonyl}piperidin-3-amine] was run?
A: The IC50 was 2.77 µM.

Q: With `Cc1cc(C(N)=O)c(F)cc1-c1ccc2cc(-c3nn4cc(C(=O)N5CCC[C@@H](N)C5)cc(F)c4c3C)n(CC3CC3)c2n1` [Example 277, 4-(2-{6-[(3R)-3-Aminopiperidine-1-carbonyl]-4-fluoro-3-methylpyrazolo[1,5-a]pyridin-2-yl}-1-(cyclopropylmethyl)-1H-pyrrolo[2,3-b]pyridin-6-yl)-2-fluoro-5-methylbenzamide] as the molecule, how does the IC50 read?
A: Its IC50 is 0.22 µM.

Q: How did the IC50 turn out when `Cc1c(-c2cc3ccc(-c4cccc(O)c4Cl)nc3n2CC2CC2)nn2cc(C(=O)N3CCC[C@@H](N)C3)cc(F)c12` [Example 278, 3-(2-{6-[(3R)-3-Aminopiperidine-1-carbonyl]-4-fluoro-3-methylpyrazolo[1,5-a]pyridin-2-yl}-1-(cyclopropylmethyl)-1H-pyrrolo[2,3-b]pyridin-6-yl)-2-chlorophenol] was run?
A: Its IC50 is 0.39 µM.

Q: For `Cc1c(-c2cc3ccc(-c4ccc(C(N)=O)c(F)c4)nc3n2CC2CC2)nn2cc(C(=O)N3CCC[C@@H](N)C3)cc(F)c12` [Example 279, 4-(2-{6-[(3R)-3-Aminopiperidine-1-carbonyl]-4-fluoro-3-methylpyrazolo[1,5-a]pyridin-2-yl}-1-(cyclopropylmethyl)-1H-pyrrolo[2,3-b]pyridin-6-yl)-2-fluorobenzamide], which IC50 is on record?
A: Its IC50 is 0.2 µM.

Q: `Cc1c(-c2cc3ccc(-c4ccc(N5CCNC5=O)cc4)nc3n2CC2CC2)nn2cc(C(=O)N3CCC[C@@H](N)C3)cc(F)c12` [Example 280, 1-[4-(2-{6-[(3R)-3-Aminopiperidine-1-carbonyl]-4-fluoro-3-methylpyrazolo[1,5-a]pyridin-2-yl}-1-(cyclopropylmethyl)-1H-pyrrolo[2,3-b]pyridin-6-yl)phenyl]imidazolidin-2-one] was tested. Which IC50 did it give?
A: Its IC50 is 1.09 µM.

Q: `Cc1c(-c2cc3ccc(-c4ccccc4N4CCNC4=O)nc3n2CC2CC2)nn2cc(C(=O)N3CCC[C@@H](N)C3)cc(F)c12` [Example 281, 1-[2-(2-{6-[(3R)-3-Aminopiperidine-1-carbonyl]-4-fluoro-3-methylpyrazolo[1,5-a]pyridin-2-yl}-1-(cyclopropylmethyl)-1H-pyrrolo[2,3-b]pyridin-6-yl)phenyl]imidazolidin-2-one] was tested. Which IC50 did it give?
A: The IC50 was 0.14 µM.

Q: `Cc1c(O)cccc1-c1ccc2cc(-c3nn4cc(C(=O)N5CCC[C@@H](N)C5)cc(F)c4c3C)n(CC3CC3)c2n1` [Example 282, 3-(2-{6-[(3R)-3-Aminopiperidine-1-carbonyl]-4-fluoro-3-methylpyrazolo[1,5-a]pyridin-2-yl}-1-(cyclopropylmethyl)-1H-pyrrolo[2,3-b]pyridin-6-yl)-2-methylphenol] was tested. Which IC50 did it give?
A: Its IC50 is 0.17 µM.

Q: How did the IC50 turn out when `Cc1c(-c2cc3ccc(-c4cccc(O)c4F)nc3n2CC2CC2)nn2cc(C(=O)N3CCC[C@@H](N)C3)cc(F)c12` [Example 283, 3-(2-{6-[(3R)-3-Aminopiperidine-1-carbonyl]-4-fluoro-3-methylpyrazolo[1,5-a]pyridin-2-yl}-1-(cyclopropylmethyl)-1H-pyrrolo[2,3-b]pyridin-6-yl)-2-fluorophenol] was run?
A: The IC50 was 0.33 µM.

Q: `Cc1c(-c2cc3ccc(-c4ccc5c(c4)CNC5=O)nc3n2CC2CC2)nn2cc(C(=O)N3CCC[C@@H](N)C3)cc(F)c12` [Example 284, 5-(2-{6-[(3R)-3-Aminopiperidine-1-carbonyl]-4-fluoro-3-methylpyrazolo[1,5-a]pyridin-2-yl}-1-(cyclopropylmethyl)-1H-pyrrolo[2,3-b]pyridin-6-yl)-2,3-dihydro-1H-isoindol-1-one] was tested. Which IC50 did it give?
A: The IC50 was 1.86 µM.

Q: How did the IC50 turn out when `Cc1c(-c2cc3ccc(-c4ccc5c(c4)C(=O)NC5)nc3n2CC2CC2)nn2cc(C(=O)N3CCC[C@@H](N)C3)cc(F)c12` [Example 285, 6-(2-{6-[(3R)-3-Aminopiperidine-1-carbonyl]-4-fluoro-3-methylpyrazolo[1,5-a]pyridin-2-yl}-1-(cyclopropylmethyl)-1H-pyrrolo[2,3-b]pyridin-6-yl)-2,3-dihydro-1H-isoindol-1-one] was run?
A: The IC50 was 1.27 µM.

Q: How did the IC50 turn out when `Cc1cc(-c2ccc3cc(-c4nn5cc(C(=O)N6CCC[C@@H](N)C6)cc(F)c5c4C)n(CC4CC4)c3n2)ccc1C(N)=O` [Example 286, 4-(2-{6-[(3R)-3-Aminopiperidine-1-carbonyl]-4-fluoro-3-methylpyrazolo[1,5-a]pyridin-2-yl}-1-(cyclopropylmethyl)-1H-pyrrolo[2,3-b]pyridin-6-yl)-2-methylbenzamide] was run?
A: Its IC50 is 0.54 µM.

Q: Which IC50 does the source give for `CNC(=O)c1ccc(-c2ccc3cc(-c4nn5cc(C(=O)N6CCC[C@@H](N)C6)cc(F)c5c4C)n(CC4CC4)c3n2)cn1` [Example 287, 5-(2-{6-[(3R)-3-Aminopiperidine-1-carbonyl]-4-fluoro-3-methylpyrazolo[1,5-a]pyridin-2-yl}-1-(cyclopropylmethyl)-1H-pyrrolo[2,3-b]pyridin-6-yl)-N-methylpyridine-2-carboxamide] here?
A: Its IC50 is 1.28 µM.

Q: For `Cc1c(-c2cc3ccc(-c4ccn5c(C)nnc5c4)nc3n2CC2CC2)nn2cc(C(=O)N3CCC[C@@H](N)C3)cc(F)c12` [Example 288, (3R)-1-{2-[1-(Cyclopropylmethyl)-6-{3-methyl-[1,2,4]triazolo[4,3-a]pyridin-7-yl}-1H-pyrrolo[2,3-b]pyridin-2-yl]-4-fluoro-3-methylpyrazolo[1,5-a]pyridine-6-carbonyl}piperidin-3-amine], which IC50 is on record?
A: The IC50 was 0.08 µM.

Q: With `Cc1c(-c2cc3ccc(Cl)nc3n2CC2CC2)nn2cc(C(=O)N3C[C@H](N)C[C@@H](F)C3)cc(Cl)c12` [Example 289, (3R,5R)-1-{4-Chloro-2-[6-chloro-1-(cyclopropylmethyl)-1H-pyrrolo[2,3-b]pyridin-2-yl]-3-methylpyrazolo[1,5-a]pyridine-6-carbonyl}-5-fluoropiperidin-3-amine] as the molecule, how does the IC50 read?
A: The IC50 was 3.58 µM.
